Assay results as given in US9302999B2, “Substituted triazoles as herbicides” (E. I. DU PONT DE NEMOURS AND COMPANY, priority 2012, dated 2016).

Key:
Type in all cases: in vivo
[1] = system: winter wheat (Triticum aestivum); test: Test C pre-/postemergence: winter wheat
Outline: (§1)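 Preemergence on seeds in loam/sand, postemergence on 2–18 cm (1–4-leaf) plants in peat-based medium; compounds in non-phytotoxic solvent with surfactant. After 13–15 days in greenhouse, visual rating versus controls, 0 (no effect) to 100 (complete control).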

[2] = system: galium (catchweed bedstraw, Galium aparine); test: Test C pre-/postemergence: galium
Outline: as §1

[3] = system: cocklebur (common cocklebur, Xanthium strumarium); test: Test C pre-/postemergence: cocklebur
Outline: as §1

corn (Zea mays) = test: Test C pre-/postemergence: corn
Outline: as §1

[4] = system: lambsquarters (Chenopodium album); test: Test C pre-/postemergence: lambsquarters
Outline: as §1

[5] = system: morningglory (Ipomoea coccinea); test: Test C pre-/postemergence: morningglory
Outline: as §1

[6] = system: nightshade (eastern black nightshade, Solanum ptycanthum); test: Test C pre-/postemergence: nightshade; settings: Preemergence
Description: Seeds of plant species selected from blackgrass (Alopecurus myosuroides), bromegrass, downy (downy bromegrass, Bromus tectorum), foxtail, green (green foxtail, Setaria viridis), ryegrass, Italian (Italian ryegrass, Lolium multiflorum), winter wheat (Triticum aestivum), wild oat (Avena fatua), galium (catchweed bedstraw, Galium aparine), bermudagrass (Cynodon dactylon), surinam grass (Brachiaria decumbens), cocklebur (common cocklebur, Xanthium strumarium), corn (Zea mays), large crabgrass (Digitaria sanguinalis), woolly cupgrass (Eriochloa villosa), foxtail, giant (giant foxtail, Setaria faberii), goosegrass (Eleusine indica), johnsongrass (Sorghum halepense), kochia (Kochia scoparia), lambsquarters (Chenopodium album), morningglory (Ipomoea coccinea), nightshade (eastern black nightshade, Solanum ptycanthum), nutsedge, yellow (yellow nutsedge, Cyperus esculentus), pigweed (Amaranthus retroflexus), ragweed (common ragweed, Ambrosia elation), soybean (Glycine max), common (oilseed) sunflower (Helianthus annuus), Russian thistle (Salsola kali) and velvetleaf (Abutilon theophrasti) were planted into a blend of loam soil and sand and treated preemergence with test chemicals formulated in a non-phytotoxic solvent mixture which included a surfactant.
At the same time, plants selected from these crop and weed species and also barley (winter barley, Hordeum vulgare), canarygrass (Phalaris minor), chickweed (common chickweed, Stellaria media) windgrass (Apera spica-venti) and deadnettle (henbit deadnettle, Lamium amplexicaule) were planted in pots containing Redi-Earth® planting medium (Scotts Company, 14111 Scottslawn Road, Marysville, Ohio 43041) comprising spaghnum peat moss, vermiculite, wetting agent and starter nutrients and treated with postemergence applications of test chemicals formulated in the same manner. Plants ranged in height from 2 to 18 cm (1- to 4-leaf stage) for postemergence treatments.
Treated plants and controls were maintained in a greenhouse for 13 to 15 days, after which time all species were compared to controls and visually evaluated. Plant response ratings, summarized in Table C, are based on a scale of 0 to 100 where 0 is no effect and 100 is complete control. A dash (-) response means no test result.

[7] = system: common (oilseed) sunflower (Helianthus annuus); test: Test C pre-/postemergence: sunflower; settings: Preemergence
Outline: as §1

[8] = system: velvetleaf (Abutilon theophrasti); test: Test C pre-/postemergence: velvetleaf
Outline: as §1

[9] = system: canarygrass (Phalaris minor); test: Test C postemergence: canarygrass
Outline: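 Greenhouse pot test; foliar postemergence treatment at 1- to 4-leaf stage. Rated visually at 13 to 15 days on a 0–100 control scale relative to untreated plants.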

[10] = Postemergence, 16 g ai/ha, scale 0 to 100, 0 no effect, 100 complete control
[11] = Postemergence, 31 g ai/ha, scale 0 to 100 (0 no effect, 100 complete control)
[12] = Postemergence, 62 g ai/ha, scale 0 to 100 (0 no effect, 100 complete control)
[13] = Postemergence, 125 g ai/ha, scale 0 to 100, 0 no effect, 100 complete control
[14] = Preemergence, 16 g ai/ha, scale 0 (no effect) to 100 (complete control)
[15] = Preemergence, 31 g ai/ha, scale of 0 to 100, 0 is no effect, 100 is complete control
[16] = Preemergence, 62 g ai/ha, scale of 0 to 100, 0 is no effect, 100 is complete control
[17] = Preemergence, 125 g ai/ha, scale 0 to 100, 0 no effect, 100 complete control
[18] = 16 g ai/ha, scale 0 (no effect) to 100 (complete control)
[19] = 31 g ai/ha, scale of 0 to 100, 0 is no effect, 100 is complete control
[20] = 62 g ai/ha, scale of 0 to 100, 0 is no effect, 100 is complete control
[21] = 125 g ai/ha, scale 0 to 100, 0 no effect, 100 complete control

SMILES: COc1nn(-c2ccc(C(F)(F)F)cc2)nc1Cc1ccnc(C(F)(F)F)c1 [Compound 15, 4-[[5-methoxy-2-[4-(trifluoromethyl)phenyl]-2H-1,2,3-triazol-4-yl]methyl]-2-(trifluoromethyl)pyridine]
- Plant response rating, Wheat [1, 10]: 15
- Plant response rating, Wheat [1, 11]: 25
- Plant response rating, Wheat [1, 12]: 35
- Plant response rating, Wheat [1, 13]: 35
- Plant response rating, Wheat [1, 14]: 0
- Plant response rating, Wheat [1, 15]: 10
- Plant response rating, Wheat [1, 16]: 25
- Plant response rating, Wheat [1, 17]: 50
- Plant response rating, Galium [2, 10]: 50
- Plant response rating, Galium [2, 11]: 55
- Plant response rating, Galium [2, 12]: 55
- Plant response rating, Galium [2, 13]: 80
- Plant response rating, Galium [2, 14]: 50
- Plant response rating, Galium [2, 15]: 75
- Plant response rating, Galium [2, 16]: 95
- Plant response rating, Galium [2, 17]: 98
- Plant response rating, Cocklebur [3, 11]: 5
- Plant response rating, Cocklebur [3, 12]: 60
- Plant response rating, Cocklebur [3, 13]: 75
- Plant response rating, Cocklebur [3, 14]: 0
- Plant response rating, Cocklebur [3, 15]: 0
- Plant response rating, Cocklebur [3, 17]: 65
- Plant response rating, Corn (corn (Zea mays); [10]): 0
- Plant response rating, Corn (corn (Zea mays); [11]): 5
- Plant response rating, Corn (corn (Zea mays); [12]): 15
- Plant response rating, Corn (corn (Zea mays); [13]): 35
- Plant response rating, Corn (corn (Zea mays); [14]): 0
- Plant response rating, Corn (corn (Zea mays); [15]): 0
- Plant response rating, Corn (corn (Zea mays); Preemergence, 62 g ai/ha, scale 0 to 100, 0 no effect, 100 complete control): 0
- Plant response rating, Corn (corn (Zea mays); [17]): 10
- Plant response rating, Lambsquarters [4, 10]: 100
- Plant response rating, Lambsquarters [4, 11]: 100
- Plant response rating, Lambsquarters [4, 12]: 100
- Plant response rating, Lambsquarters [4, 13]: 100
- Plant response rating, Lambsquarters [4, 14]: 95
- Plant response rating, Lambsquarters [4, 15]: 100
- Plant response rating, Lambsquarters [4, 16]: 100
- Plant response rating, Lambsquarters [4, 17]: 100
- Plant response rating, Morningglory [5, 10]: 45
- Plant response rating, Morningglory [5, 11]: 75
- Plant response rating, Morningglory [5, 12]: 75
- Plant response rating, Morningglory [5, 13]: 90
- Plant response rating, Morningglory [5, 14]: 5
- Plant response rating, Morningglory [5, 15]: 5
- Plant response rating, Morningglory [5, 16]: 15
- Plant response rating, Morningglory [5, 17]: 45
- Plant response rating, Nightshade [6, 18]: 10
- Plant response rating, Nightshade [6, 19]: 25
- Plant response rating, Nightshade [6, 20]: 85
- Plant response rating, Nightshade [6, 21]: 90
- Plant response rating, Sunflower [7, 18]: 0
- Plant response rating, Sunflower [7, 19]: 0
- Plant response rating, Sunflower [7, 20]: 0
- Plant response rating, Sunflower [7, 21]: 25
- Plant response rating, Velvetleaf [8, 10]: 60
- Plant response rating, Velvetleaf [8, 11]: 60
- Plant response rating, Velvetleaf [8, 12]: 60
- Plant response rating, Velvetleaf [8, 13]: 90
- Plant response rating, Velvetleaf [8, 14]: 0
- Plant response rating, Velvetleaf [8, 15]: 0
- Plant response rating, Velvetleaf [8, 16]: 20
- Plant response rating, Velvetleaf [8, 17]: 80
- Plant response rating, Canarygrass ([9]; 16 g ai/ha, scale 0 to 100, 0 no effect, 100 complete control): 35
- Plant response rating, Canarygrass ([9]; 31 g ai/ha, scale 0 to 100 (0 no effect, 100 complete control)): 60
- Plant response rating, Canarygrass ([9]; 62 g ai/ha, scale 0 to 100 (0 no effect, 100 complete control)): 85
- Plant response rating, Canarygrass [9, 21]: 85
